# Test results taken from ChEMBL document CHEMBL3603765, “Targeting Drug Resistance in EGFR with Covalent Inhibitors: A Structure-Based Design Approach” (J Med Chem, 2015).
# Active and inactive are the calls of the source. No cut-off for these calls is given here.
# Columns and labels:
# [1] = molecular target: Epidermal growth factor receptor (Homo sapiens, UniProt P00533); assay: Inhibition of wild type EGFR (unknown origin) expressed in Sf9 cells pre-incubated for 30 mins before substrate and ATP addition by homogeneous time-resolved FRET assay
# [2] = molecular target: T1, Epidermal growth factor receptor (Homo sapiens, UniProt P00533, L858R)
# [3] = molecular target: T2, Epidermal growth factor receptor (Homo sapiens, UniProt P00533, L858R/T790M)
# [4] = Growth inhibition of human HCC827 cells with exon 19 deletion and delE746-A750 incubated for 96 hrs by cell-titer Glo reagent based assay; assay type: functional; settings: HCC827, 96 h
# [5] = molecular target: Proto-oncogene tyrosine-protein kinase Src (Homo sapiens, UniProt P12931, S348C/T341M); assay: Inhibition of cSrc T338M/S345C mutant (unknown origin) pre-incubated for 30 mins before substrate and ATP addition by HTRF assay
# NCI-H1975 [6] = assay: Growth inhibition of human NCI-H1975 cells expressing EGFR L858R/T790M mutant incubated for 96 hrs by cell-titer Glo reagent based assay; assay type: functional; settings: NCI-H1975, 96 h
# NCI-H661 = assay: Growth inhibition of human NCI-H661 cells incubated for 96 hrs by cell-titer Glo reagent based assay; assay type: functional; settings: NCI-H661, 96 h
# NCI-H1975 [7] = assay: Growth inhibition of human NCI-H1975 cells expressing EGFR L858R/T790M mutant at 30 um incubated for 96 hrs by cell-titer Glo reagent based assay; assay type: functional
# A-431 = assay: Growth inhibition of human A431 cells incubated for 96 hrs by cell-titer Glo reagent based assay; assay type: functional; settings: A-431, 96 h
# [8] = molecular target: Proto-oncogene tyrosine-protein kinase Src (Homo sapiens, UniProt P12931); assay: Inhibition of wild type cSrc (251 to 533 residues) (unknown origin) pre-incubated for 30 mins before substrate and ATP addition by HTRF assay
# [9] = molecular target: Proto-oncogene tyrosine-protein kinase Src (Homo sapiens, UniProt P12931, T341M); assay: Inhibition of cSrc T338M mutant (unknown origin) pre-incubated for 30 mins before substrate and ATP addition by HTRF assay
# [10] = system: Epidermal growth factor receptor (Homo sapiens), P00533 [T790M]; assay: Binding affinity to EGFR T790M mutant (unknown origin) expressed in Sf9 cells by ESI-MS method
# [11] = system: Epidermal growth factor receptor (Homo sapiens), P00533 [L858R]; assay: Inhibition of EGFR L858R mutant (unknown origin) expressed in Sf9 cells assessed as enzyme inactivation constant by enzyme kinetics assay
# [12] = system: Epidermal growth factor receptor (Homo sapiens), P00533 [L858R,T790M]; assay: Inhibition of EGFR L858R/T790M mutant (unknown origin) expressed in Sf9 cells assessed as enzyme inactivation constant by enzyme kinetics assay
# [13] = Efflux ratio in human Caco2 cells incubated for 2 hrs; assay type: ADME, cell-based; settings: Caco-2
# [14] = molecular target: T2, Epidermal growth factor receptor; assay: Inhibition of EGFR L858R/T790M mutant (unknown origin) expressed in Sf9 cells by enzyme kinetics assay
# [15] = Kinetic solubility in 50 mM Hepes buffer at pH 7.4; assay type: physicochemical; settings: read-out: Kinetic_solubility
# [16] = molecular target: T1, Epidermal growth factor receptor; assay: Inhibition of EGFR L858R mutant (unknown origin) expressed in Sf9 cells by enzyme kinetics assay
# [17] = Permeability of the compound after 16 hrs assessed as compound flux by PAMPA method; assay type: physicochemical
# [18] = system: Epidermal growth factor receptor (Homo sapiens), P00533 [T790M]; assay: Binding affinity to EGFR T790M mutant (unknown origin) expressed in Sf9 cells assessed as covalent modification at Cys797 residue nano-LC-MS/MS method
SMILES,IC50 [1] [nM],IC50 [2] [nM],IC50 [3] [nM],GI50 [4] [nM],also measured
Cc1cc(Nc2cc(N3CCN(C)CC3)nc(Oc3ccc(N)cc3)n2)n[nH]1,> 10000,2100,1400,–,–
CCC(=O)Nc1cccc(Oc2nc(Nc3n[nH]c4ccccc34)cc(N3CCN(C)CC3)n2)c1,> 10000,> 10000,8600,> 30000,IC50 [5]: 260 nM; GI50 (NCI-H1975 [6]): 30000 nM; GI50 (NCI-H661): 22000 nM
CN(C)C/C=C/C(=O)Nc1cccc(Oc2nc(Nc3n[nH]c4ccccc34)cc(N3CCN(C)CC3)n2)c1,6700,3600,700,> 30000,growth inhibition (GI) (NCI-H1975 [7]): inactive; GI50 (NCI-H661): > 30000 nM
Cc1cc(Nc2cc(N3CCN(C)CC3)nc(Oc3cccc([N+](=O)[O-])c3)n2)n[nH]1,3900,2300,600,8900,GI50 (A-431): 3500 nM; GI50 (NCI-H1975 [6]): 6500 nM
C=CC(=O)Nc1ccccc1-c1nc(Nc2cc[nH]n2)c2ccccc2n1,> 10000,2700,1100,–,–
Cc1cc(Nc2cc(N3CCN(C)CC3)nc(Oc3ccc(NC(=O)/C=C/C(F)(F)F)cc3)n2)n[nH]1,2000,2100,1500,–,–
CCC(=O)Nc1ccc2c(Nc3cc[nH]n3)nc(-c3ccccc3)nc2c1,> 10000,2100,2200,–,IC50 [5]: 48 nM; IC50 [8]: 336 nM; IC50 [9]: 60 nM
C=CC(=O)Nc1cccc(-c2nc(Nc3cc[nH]n3)c3ccccc3n2)c1,1100,500,100,–,–
CCC(=O)Nc1ccc(Oc2nc(Nc3cc(C)[nH]n3)cc(N3CCN(C)CC3)n2)cc1,> 10000,1900,700,–,–
CCC(=O)Nc1ccccc1-c1nc(Nc2cc[nH]n2)c2ccccc2n1,> 10000,> 10000,> 10000,–,–
CCC(=O)Nc1cccc(Oc2nc(Nc3cc(C)[nH]n3)cc(N3CCN(C)CC3)n2)c1,> 10000,1900,> 10000,> 30000,IC50 [5]: 349 nM; GI50 (A-431): 8400 nM; IC50 [9]: 254 nM; GI50 (NCI-H1975 [6]): > 30000 nM
C=CC(=O)Nc1cccc(Oc2nccc(Nc3cc(C)[nH]n3)n2)c1,> 10000,1800,900,–,–
C=CC(=O)Nc1cccc(Oc2nc(Nc3n[nH]c4ccc(Br)cc34)cc(N3CCN(C)CC3)n2)c1,2900,400,300,8600,GI50 (NCI-H1975 [6]): 18000 nM; GI50 (NCI-H661): 11000 nM
CCC(=O)Nc1ccccc1Oc1nc(Nc2cc(C)[nH]n2)cc(N2CCN(C)CC2)n1,> 10000,> 10000,> 10000,–,–
Cc1cc(Nc2cc(N3CCN(C)CC3)nc(Oc3ccc([N+](=O)[O-])cc3)n2)n[nH]1,> 10000,1800,900,–,–
Cc1cc(Nc2cc(N3CCN(C)CC3)nc(Oc3ccccc3[N+](=O)[O-])n2)n[nH]1,> 10000,1900,1600,–,–

SMILES,IC50 [1] [nM],IC50 [2] [nM],IC50 [3] [nM],GI50 [4] [nM],also measured
CCC(=O)Nc1cccc(Oc2nccc(Nc3cc(C)[nH]n3)n2)c1,> 10000,> 10000,> 10000,–,–
CCC(=O)Nc1cccc(-c2nc(Nc3cc[nH]n3)c3ccccc3n2)c1,3700,1900,400,–,–
Cc1cc(Nc2cc(N3CCN(C)CC3)nc(Oc3cccc(N)c3)n2)n[nH]1,> 10000,> 10000,4900,> 30000,GI50 (A-431): 20000 nM; GI50 (NCI-H1975 [6]): > 30000 nM
C=CC(=O)Nc1ccc(-c2nc(Nc3cc[nH]n3)c3ccccc3n2)cc1,> 10000,> 10000,> 10000,–,–
CCC(=O)Nc1cc(Nc2cc[nH]n2)nc(-c2ccccc2)n1,> 10000,3400,> 10000,–,–
C=CC(=O)Nc1cc(Nc2cc[nH]n2)nc(-c2ccccc2)n1,900,800,300,–,Activity [10]: Active
CCC(=O)Nc1cccc(Oc2nc(Nc3cc[nH]n3)cc(N3CCN(C)CC3)n2)c1,> 10000,> 10000,> 10000,–,–
C=CC(=O)Nc1cccc(Nc2nc(Nc3ccc(N4CCN(C(C)=O)CC4)cc3OC)ncc2C(F)(F)F)c1 [ROCILETINIB],–,–,–,30,GI50 (NCI-H1975 [6]): 30 nM; GI50 (NCI-H661): 1700 nM
C=CC(=O)Nc1cccc(-c2nc(Nc3n[nH]c4ccccc34)cc(N3CCN(C)CC3)n2)c1,> 10000,5000,4900,16000,GI50 (NCI-H1975 [6]): 11000 nM; GI50 (NCI-H661): 12000 nM
C=CC(=O)Nc1cccc(Oc2nc(Nc3n[nH]c4ccccc34)cc(N3CCN(C(C)=O)CC3)n2)c1,3600,600,200,25000,growth inhibition (GI) (NCI-H1975 [7]): inactive; GI50 (NCI-H661): > 30000 nM
C=CC(=O)Nc1cccc(Oc2nc(Nc3cc[nH]n3)cc(N3CCN(C)CC3)n2)c1,> 10000,2000,1900,–,–
C=CC(=O)Nc1ccccc1Oc1nc(Nc2cc(C)[nH]n2)cc(N2CCN(C)CC2)n1,900,600,2100,–,–
C=CC(=O)Nc1cccc(Oc2nc(Nc3n[nH]c4ccccc34)cc(N3CCN(C)CC3)n2)c1,1700,500,70,2500,Kinact [11]: 0.055 min⁻¹; Kinact [12]: 0.137 min⁻¹; efflux ratio at 2 h [13]: 35; Ki [14]: 0.32 nM; solubility kinetic [15]: 277 µM; IC50 [5]: 17 nM; Ki [16]: 833 nM; Activity [10]: Active; GI50 (NCI-H1975 [6]): 9800 nM; permeability [17]: 47%; GI50 (NCI-H661): 8600 nM; Activity [18]: Active
C=CC(=O)Nc1cccc(-c2nccc(Nc3cc(C)[nH]n3)n2)c1,> 10000,2800,2500,–,–
CCC(=O)Nc1ccc(-c2nc(Nc3cc[nH]n3)c3ccccc3n2)cc1,> 10000,> 10000,> 10000,–,–
C=CC(=O)Nc1ccc(Oc2nc(Nc3cc(C)[nH]n3)cc(N3CCN(C)CC3)n2)cc1,3100,1800,2400,–,–
